For 33 compounds, MIC results are on record in patent US9060515B2, “Heterocyclic urea compounds” (BIOTA EUROPE LTD, priority 2011, dated 2015).

In brackets after ≈: the same amount, converted by molar mass.

What all share (assay type): cell-based
The test system of one assay is E. faecalis (ATCC 29212). In words: Antibacterial susceptibility testing (MIC, broth microdilution or agar dilution), E. faecalis. Particulars: Enterococcus faecalis, ATCC29212; read-out: E. faecalis (ATCC 29212) minimal inhibitory concentration (MIC). On the procedure: (§1) Compounds of the invention were tested for antimicrobial activity by susceptibility testing in liquid or on solid media. MICs for compounds against each strain were determined by the broth microdilution or agar dilution method according to the guidelines of the Clinical Laboratories and Standards Institute, formerly the National Committee for Clinical Laboratory Standards (Clinical Laboratories and Standards Institute. Methods for Dilution Antimicrobial Susceptibility Tests for Bacteria That Grow Aerobically; Approved Standard—Seventh Edition. Document M7-A7. CLSI, Wayne, Pa., 2006; Clinical Laboratories and Standards Institute. The Gram positive bacterial strains tested include S. aureus (Staphylococcus aureus (Isolate ID ATCC 29213)), E. faecalis (Enterococcus faecalis (Isolate ID ATCC 29212)) and S. pyogenes (Streptococcus pyogenes (Isolate ID ATCC 51339)). The Gram negative bacterial strains tested include H. influenzae (Haemophilus influenzae (Isolate ID ATCC 49247)).
In general terms: In broth dilution the organism is exposed to a series of concentrations in liquid medium.

Another assay deals with S. aureus (ATCC 29213). Nature of the assay: Antibacterial susceptibility testing (MIC, broth microdilution or agar dilution), S. aureus. Particulars: Staphylococcus aureus, ATCC29213; read-out: S. aureus (ATCC 29213) minimal inhibitory concentration (MIC). On the procedure: as §1
The next assay relates to S. pyogenes (ATCC 51339). Nature of the assay: Antibacterial susceptibility testing (MIC, broth microdilution or agar dilution), S. pyogenes. Particulars: Streptococcus pyogenes, ATCC51339; read-out: S. pyogenes (ATCC 51339) minimal inhibitory concentration (MIC). The protocol: as §1

In the case of `CCNC(=O)Nc1cc(Nc2cc(F)cc(F)c2)c(C(=O)Nc2ccc(CCC(=O)OCC)cc2)cn1` [Compound 234, ethyl 3-{4-[({4-[(3,5-difluorophenyl)amino]-6-[(ethylcarbamoyl)amino]pyridin-3-yl}carbonyl)amino]phenyl}propanoate], the MIC in the assay on E. faecalis (ATCC 29212) is at most 1 µg/mL.
Same read-out and setting: for `CCNC(=O)Nc1cc(Nc2ccccc2)c(C(=O)Nc2ccn(CC(=O)O)n2)cn1` [Compound 233, {3-[({6-[(ethylcarbamoyl)amino]-4-(phenylamino)pyridin-3-yl}carbonyl)amino]-1H-pyrazol-1-yl}acetic acid] the value was 2 µg/mL (≈ 4.72 µM).
Consider `CCNC(=O)Nc1cc(Nc2ccccc2)c(C(=O)Nc2ccccc2)nn1` [Compound 212, 6-[(ethylcarbamoyl)amino]-N-phenyl-4-(phenylamino)pyridazine-3-carboxamide], for which, in the assay on E. faecalis (ATCC 29212), the MIC is 8 µg/mL (≈ 21.3 µM).
Take `CCNC(=O)Nc1cc(Nc2ccc(F)c(C)c2)c(C(=O)Nc2ccc(CCC(=O)OCC)cc2)cn1` [Compound 218, ethyl 3-{4-[({6-[(ethylcarbamoyl)amino]-4-[(4-fluoro-3-methylphenyl)amino]pyridin-3-yl}carbonyl)amino]phenyl}propanoate]: in the assay on E. faecalis (ATCC 29212), the MIC is at most 1 µg/mL.
Consider `CCNC(=O)Nc1cc(Nc2ccc(C)c(F)c2)c(C(=O)Nc2ccc(CCC(=O)OCC)cc2)cn1` [Compound 217, ethyl 3-{4-[({6-[(ethylcarbamoyl)amino]-4-[(3-fluoro-4-methylphenyl)amino]pyridin-3-yl}carbonyl)amino]phenyl}propanoate], for which, in the assay with E. faecalis (ATCC 29212), the MIC is at most 1 µg/mL.
Still for that read-out and setting: for `CCNC(=O)Nc1cc(Nc2ccccc2)c(C(=O)Nc2ccc(CP(=O)(O)O)cc2)cn1` [Compound 207, {4-[({6-[(ethylcarbamoyl)amino]-4-(phenylamino)pyridin-3-yl}carbonyl)amino]benzyl}phosphonic acid] the value was 8 µg/mL (≈ 17 µM).
Consider `CCNC(=O)Nc1cc(Nc2ccc(Cl)cc2)c(C(=O)Nc2cccnc2)cn1` [Compound 106, 4-(4-chlorophenylamino)-6-(3-ethylureido)-N-(pyridin-3-yl)nicotinamide], for which the MIC in the assay on S. aureus (ATCC 29213) and in the assay on S. pyogenes (ATCC 51339) was at most 1 µg/mL each time.
Regarding `CCNC(=O)Nc1cc(Nc2ccccc2)c(C(=O)Nc2cncc(C)c2)cn1` [Compound 91, 6-(3-ethylureido)-N-(5-methylpyridin-3-yl)-4-(phenylamino)nicotinamide], the MIC in the assay on S. aureus (ATCC 29213) and in the assay on S. pyogenes (ATCC 51339) was at most 1 µg/mL throughout.
For `CCNC(=O)Nc1cc(Nc2c(C)noc2C)c(C(=O)Nc2cccnc2)cn1` [Compound 115, 4-(3,5-dimethylisoxazol-4-ylamino)-6-(3-ethylureido)-N-(pyridin-3-yl)nicotinamide], the MIC in the assay with S. aureus (ATCC 29213) was found to be 32 µg/mL (≈ 80.9 µM); with S. pyogenes (ATCC 51339) it was 8 µg/mL (≈ 20.2 µM).
For `CCNC(=O)Nc1cc(Nc2ccccc2)c(C(=O)Nc2ccc(C)nc2)cn1` [Compound 81, 6-(3-ethylureido)-N-(6-methylpyridin-3-yl)-4-(phenylamino)nicotinamide], the MIC in the assay on S. aureus (ATCC 29213) and in the assay with S. pyogenes (ATCC 51339) was at most 1 µg/mL each time.
Regarding `CCNC(=O)Nc1cc(Nc2ccc(Cl)cc2F)c(C(=O)Nc2ccc(CCC(=O)OCC)cc2)cn1` [Compound 219, ethyl 3-{4-[({4-[(4-chloro-2-fluorophenyl)amino]-6-[(ethylcarbamoyl)amino]pyridin-3-yl}carbonyl)amino]phenyl}propanoate], the MIC in the assay on E. faecalis (ATCC 29212) is at most 1 µg/mL.
For `CCNC(=O)Nc1cc(Nc2ccccc2)c(C(=O)Nc2ccc(F)c(F)c2)cn1` [Compound 69, N-(3,4-difluorophenyl)-6-(3-ethylureido)-4-(phenylamino)nicotinamide], the MIC in the assay on S. aureus (ATCC 29213) was at most 1 µg/mL; in the assay with S. pyogenes (ATCC 51339), 4 µg/mL (≈ 9.72 µM).
Consider `CCNC(=O)Nc1cc(Nc2ccccc2)c(C(=O)Nc2cnn(C)c2)cn1` [Compound 65, 6-(3-ethylureido)-N-(1-methyl-1H-pyrazol-4-yl)-4-(phenylamino)nicotinamide], for which the MIC was 2 µg/mL (≈ 5.27 µM) with S. aureus (ATCC 29213) and at most 1 µg/mL in the assay with S. pyogenes (ATCC 51339).
Regarding `CCNC(=O)Nc1cc(Nc2ccccc2)c(C(=O)Nc2cccc(F)c2)cn1` [Compound 56, 6-(3-ethylureido)-N-(3-fluorophenyl)-4-(phenylamino)nicotinamide], the values for the MIC in the assay on S. aureus (ATCC 29213) and with S. pyogenes (ATCC 51339) were at most 1 µg/mL and 2 µg/mL (≈ 5.08 µM), respectively.
In the same order, the values of `CCNC(=O)Nc1cc(Nc2ccccc2)c(C(=O)Nc2ccnn2C)cn1` [Compound 10, 6-(3-Ethylureido)-N-(1-methyl-1H-pyrazol-5-yl)-4-(phenylamino)nicotinamide] are 16 µg/mL (≈ 42.2 µM) and 2 µg/mL (≈ 5.27 µM).
Turning to `CCNC(=O)Nc1cc(Nc2ccc(Cl)cc2)c(C(=O)Nc2ccc(-n3cccc3C(=O)OC)cc2)cn1` [Compound 197, methyl 1-{4-[({4-[(4-chlorophenyl)amino]-6-[(ethylcarbamoyl)amino]pyridin-3-yl}carbonyl)amino]phenyl}-1H-pyrrole-2-carboxylate], the MIC in the assay on E. faecalis (ATCC 29212) amounted to 4 µg/mL (≈ 7.5 µM).
Take `CCNC(=O)Nc1cc(Nc2ccccc2)c(C(=O)Nc2ccc(N(C)C)nc2)cn1` [Compound 98, N-(6-(dimethylamino)pyridin-3-yl)-6-(3-ethylureido)-4-(phenylamino)nicotinamide]: the MIC in the assay on S. aureus (ATCC 29213) and in the assay on S. pyogenes (ATCC 51339) was at most 1 µg/mL each time.
For `CCNC(=O)Nc1cc(Nc2ccc(CCC(=O)OCC)cc2)c(C(=O)Nc2cccnc2)cn1` [Compound 131, ethyl 3-(4-(2-(3-ethylureido)-5-(pyridin-3-ylcarbamoyl)pyridin-4-ylamino)phenyl)propanoate], the figures for the MIC in the assay on S. aureus (ATCC 29213) and in the assay with S. pyogenes (ATCC 51339) were 8 µg/mL (≈ 16.8 µM) and 4 µg/mL (≈ 8.39 µM), respectively.
In the same order, the values of `CCNC(=O)Nc1cc(Nc2ccccc2)c(C(=O)Nc2ccc(Oc3ccc(F)cc3)nc2)cn1` [Compound 82] are 2 µg/mL (≈ 4.11 µM) and 8 µg/mL (≈ 16.4 µM).
For the compound `CCNC(=O)Nc1cc(Nc2cccc(Cl)c2)c(C(=O)Nc2cccnc2)cn1` [Compound 107, 4-(3-chlorophenylamino)-6-(3-ethylureido)-N-(pyridin-3-yl)nicotinamide], the values for the MIC in the assay on S. aureus (ATCC 29213) and in the assay with S. pyogenes (ATCC 51339) were at most 1 µg/mL and 2 µg/mL (≈ 4.87 µM), respectively.
As to `CCNC(=O)Nc1cc(Nc2cnn(C)c2)c(C(=O)Nc2cccnc2)cn1` [Compound 113, 6-(3-ethylureido)-4-(1-methyl-1H-pyrazol-4-ylamino)-N-(pyridin-3-yl)nicotinamide], the figures for the MIC in the assay on S. aureus (ATCC 29213) and in the assay with S. pyogenes (ATCC 51339) were 32 µg/mL (≈ 84.1 µM) and 4 µg/mL (≈ 10.5 µM), respectively.
In the same order, the values of `CCNC(=O)Nc1cc(Nc2ccccc2)c(C(=O)Nc2cncc(C(=O)OC)c2)cn1` [Compound 89, methyl 5-(6-(3-ethylureido)-4-(phenylamino)nicotinamido)nicotinate] are at most 1 µg/mL and 8 µg/mL (≈ 18.4 µM).
Turning to `CCNC(=O)Nc1cc(Nc2ccccc2)c(C(=O)Nc2cc(C)cc(F)c2)cn1` [Compound 93, 6-(3-ethylureido)-N-(3-fluoro-5-methylphenyl)-4-(phenylamino)nicotinamide], the MIC is at most 1 µg/mL in the assay on S. aureus (ATCC 29213) and 2 µg/mL (≈ 4.91 µM) in the assay on S. pyogenes (ATCC 51339).
As for `CCNC(=O)Nc1cc(Nc2ccc(OC)cc2)c(C(=O)Nc2cccnc2)cn1` [Compound 14, 6-(3-Ethylureido)-4-(4-methaxyphenylamino)-N-(pyridin-3-yl)nicotinamide], the results for the MIC in the assay with S. aureus (ATCC 29213) and in the assay with S. pyogenes (ATCC 51339) were 4 µg/mL (≈ 9.84 µM) and 2 µg/mL (≈ 4.92 µM), respectively.
Regarding `CCNC(=O)Nc1cc(Nc2ccccc2)c(C(=O)Nc2ccc(CC(C)(C)C(=O)OC)cc2)cn1` [Compound 129], the MIC is 2 µg/mL (≈ 4.09 µM) with S. aureus (ATCC 29213) and at most 1 µg/mL in the assay on S. pyogenes (ATCC 51339).
In the same order, the values of `CCNC(=O)Nc1cc(Nc2ccccc2)c(C(=O)Nc2ccc(CCCO)cc2)cn1` [Compound 117, 6-(3-ethylureido)-N-(4-(3-hydroxypropyl)phenyl)-4-(phenylamino)nicotinamide] are at most 1 µg/mL and at most 1 µg/mL.
In the case of `CCNC(=O)Nc1cc(Nc2ccccc2)c(C(=O)Nc2ccc(OC)cc2)cn1` [Compound 33, 6-(3-ethylureido)-N-(4-methoxyphenyl)-4-(phenylamino)nicotinamide], the MIC was 4 µg/mL (≈ 9.87 µM) in the assay on S. aureus (ATCC 29213) and 16 µg/mL (≈ 39.5 µM) in the assay with S. pyogenes (ATCC 51339).
In the case of `CCNC(=O)Nc1cc(Nc2ccccc2)c(C(=O)Nc2ccncc2)cn1` [Compound 42, 6-(3-ethylureido)-4-(phenylamino)-N-(pyridin-4-yl)nicotinamide], the MIC with S. aureus (ATCC 29213) and in the assay on S. pyogenes (ATCC 51339) was at most 1 µg/mL in each case.
Take `CCNC(=O)Nc1cc(Nc2ccc(C(=O)OCC)cc2)c(C(=O)Nc2cccnc2)cn1` [Compound 15, Ethyl 4-(2-(3-ethylureido)-5-(pyridin-3-ylcarbamoyl)pyridin-4-ylamino)benzoate]: the MIC with S. aureus (ATCC 29213) and with S. pyogenes (ATCC 51339) was at most 1 µg/mL in each case.
On to `CCNC(=O)Nc1cc(Nc2ccccc2)c(C(=O)Nc2ccc3nccn3c2)cn1` [Compound 76, 6-(3-ethylureido)-N-(imidazo[1,2-a]pyridin-6-yl)-4-(phenylamino)nicotinamide], for which the results for the MIC in the assay on S. aureus (ATCC 29213) and with S. pyogenes (ATCC 51339) were 2 µg/mL (≈ 4.81 µM) and at most 1 µg/mL, respectively.
In the same order, the values of `CCNC(=O)Nc1cc(Nc2ccccc2)c(C(=O)Nc2cccc(OC)c2)cn1` [Compound 32, 6-(3-ethylureido)-N-(3-methoxyphenyl)-4-(phenylamino)nicotinamide] are 4 µg/mL (≈ 9.87 µM) and 8 µg/mL (≈ 19.7 µM).
As to `CCNC(=O)Nc1cc(Nc2ccc(C(=O)OC)cc2)c(C(=O)Nc2cccnc2)cn1` [Compound 96, methyl 4-(2-(3-ethylureido)-5-(pyridin-3-ylcarbamoyl)pyridin-4-ylamino)benzoate], the MIC in the assay with S. aureus (ATCC 29213) and in the assay on S. pyogenes (ATCC 51339) was at most 1 µg/mL in each case.
For the compound `CCNC(=O)Nc1cc(Nc2ccccc2)c(C(=O)NCC)cn1` [Compound 8, N-Ethyl-6-(3-ethylureido)-4-(phenylamino)nicotinamide], the MIC came to 32 µg/mL (≈ 97.7 µM) in the assay with S. aureus (ATCC 29213) and 16 µg/mL (≈ 48.9 µM) with S. pyogenes (ATCC 51339).
